Measured values taken from patent US9662327B2 (AGIOS PHARMACEUTICALS, INC, priority 2011, dated 2017).

Molecular target: IDH1 R132H (Homo sapiens (Human), UniProt O75874, R132H)
Assay: Assays for IDH1 R132H Inhibitors (NADPH/aKG, resazurin detection)
Assay type: biochemical
Details: IDH1 R132H enzyme, Table 2; read-out: IDHR132H Activity
Method in brief: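 Mutant enzyme in 150 mM NaCl, 10 mM MgCl2, 20 mM Tris pH 7.5, 0.03% BSA; compound in DMSO added to substrate mix of 8 uM NADPH and 2 mM aKG. Reaction ran 50 min at room temperature, then resazurin detection mix (30 μM) added for 5 min at room temperature.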

Sequence of IDH1 R132H (O75874 whole entry R132H): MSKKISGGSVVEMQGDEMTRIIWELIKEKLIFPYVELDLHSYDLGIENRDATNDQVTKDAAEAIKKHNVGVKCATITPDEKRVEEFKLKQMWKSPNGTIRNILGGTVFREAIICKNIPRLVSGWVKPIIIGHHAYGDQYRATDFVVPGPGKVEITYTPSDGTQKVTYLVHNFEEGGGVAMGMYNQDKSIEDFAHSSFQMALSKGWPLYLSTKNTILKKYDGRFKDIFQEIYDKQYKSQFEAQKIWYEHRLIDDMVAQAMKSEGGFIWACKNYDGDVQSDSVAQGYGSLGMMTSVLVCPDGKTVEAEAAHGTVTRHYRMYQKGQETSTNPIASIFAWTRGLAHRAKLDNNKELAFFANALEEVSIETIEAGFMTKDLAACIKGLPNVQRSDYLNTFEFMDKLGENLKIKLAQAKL

Row | IC50 [nM] | Structure (SMILES)
1 | 1000 to 10000 | C[C@@H]1CN(c2nc(C3CCCCC3)c3c(c2C#N)CCOC3)CCN1C(=O)Cc1cccnc1 [Compound 260, (R)-8-cyclohexyl-6-(3-methyl-4-(2-(pyridin-3-yl)acetyl)piperazin-1-yl)-3,4-dihydro-1H-pyrano[3,4-c]pyridine-5-carbonitrile]
2 | 1000 to 10000 | CSCCC(=O)N1CCN(c2nc(C3CCCCC3)c3c(c2C#N)CCOC3)C[C@H]1C [Compound 264, (R)-8-cyclohexyl-6-(3-methyl-4-(3-(methylthio)propanoyl)piperazin-1-yl)-3,4-dihydro-1H-pyrano[3,4-c]pyridine-5-carbonitrile]
3 | 500 to 1000 | COCCC(=O)N1CCN(c2nc(C(C)C)c3c(c2C#N)CC(C)(C)OC3)C[C@H]1C [Compound 268, (R)-8-isopropyl-6-(4-(3-methoxypropanoyl)-3-methylpiperazin-1-yl)-3,3-dimethyl-3,4-dihydro-1H-pyrano[3,4-c]pyridine-5-carbonitrile]
4 | < 500 | CSCCC(=O)N1CCN(c2nc(C3CC3)c3c(c2C#N)CC(C)(C)OC3)C[C@H]1C(C)C [Compound 269, (R)-8-cyclopropyl-6-(3-isopropyl-4-(3-(methylthio)propanoyl)piperazin-1-yl)-3,3-dimethyl-3,4-dihydro-1H-pyrano[3,4-c]pyridine-5-carbonitrile]
5 | 500 to 1000 | CC1(C)Cc2c(C#N)c(N3CCN(C(=O)c4ccco4)[C@@H](c4ccccc4)C3)nc(C3CC3)c2CO1 [Compound 273]
6 | 1000 to 10000 | Cc1ccc(NC(=O)N2CCN(c3nc(C4CCCCC4)c4c(c3C#N)CCOC4)C[C@H]2C)cc1 [Compound 280, (R)-4-(5-cyano-8-cyclohexyl-3,4-dihydro-1H-pyrano[3,4-c]pyridin-6-yl)-2-methyl-N-p-tolylpiperazine-1-carboxamide]
7 | 1000 to 10000 | CCOc1ccc(NC(=O)N2CCN(c3nc(C4CC4)c4c(c3C#N)CC(C)(C)OC4)C[C@H]2C(C)C)cc1 [Compound 282, (R)-4-(5-cyano-8-cyclopropyl-3,3-dimethyl-3,4-dihydro-1H-pyrano[3,4-c]pyridin-6-yl)-N-(4-ethoxyphenyl)-2-isopropylpiperazine-1-carboxamide]
8 | 1000 to 10000 | CC(C)[C@@H]1CN(c2nc(C3CC3)c3c(c2C#N)CC(C)(C)OC3)CCN1C(=O)Nc1ccc(F)cc1 [Compound 283]
9 | 1000 to 10000 | CC(C)[C@@H]1CN(c2nc(C3CC3)c3c(c2C#N)CC(C)(C)OC3)CCN1S(=O)(=O)c1cccs1 [Compound 284, (R)-8-cyclopropyl-6-(3-isopropyl-4-(thiophen-2-ylsulfonyl)piperazin-1-yl)-3,3-dimethyl-3,4-dihydro-1H-pyrano[3,4-c]pyridine-5-carbonitrile]
10 | 1000 to 10000 | CC(C)[C@@H]1CN(c2nc(C3CC3)c3c(c2C#N)CC(C)(C)OC3)CCN1S(=O)(=O)c1ccc(Cl)s1 [Compound 285, (R)-6-(4-(5-chlorothiophen-2-ylsulfonyl)-3-isopropylpiperazin-1-yl)-8-cyclopropyl-3,3-dimethyl-3,4-dihydro-1H-pyrano[3,4-c]pyridine-5-carbonitrile]

Further lines, the compound ahead of its results:

Row | Structure (SMILES) | IC50 [nM]
11 | C[C@@H]1CN(c2nc(C3CCCCC3)c3c(c2C#N)CCOC3)CCN1C(=O)c1cnn2cccnc12 [Compound 261, (R)-8-cyclohexyl-6-(3-methyl-4-(pyrazolo[1,5-a]pyrimidine-3-carbonyl)piperazin-1-yl)-3,4-dihydro-1H-pyrano[3,4-c]pyridine-5-carbonitrile] | 1000 to 10000
12 | C[C@@H]1CN(c2nc(C3CCCCC3)c3c(c2C#N)CCOC3)CCN1C(=O)c1nccn1C [Compound 262, (R)-8-cyclohexyl-6-(3-methyl-4-(1-methyl-1H-imidazole-2-carbonyl)piperazin-1-yl)-3,4-dihydro-1H-pyrano[3,4-c]pyridine-5-carbonitrile] | 1000 to 10000
13 | C[C@@H]1CN(c2nc(C3CCCCC3)c3c(c2C#N)CCOC3)CCN1C(=O)C1CCOC1 (stereo partly drawn) [Compound 263, 8-cyclohexyl-6-((3R)-3-methyl-4-(tetrahydrofuran-3-carbonyl)piperazin-1-yl)-3,4-dihydro-1H-pyrano[3,4-c]pyridine-5-carbonitrile] | 1000 to 10000
14 | CC(C)[C@@H]1CN(c2nc(C3CC3)c3c(c2C#N)CC(C)(C)OC3)CCN1C(=O)Cc1cccnc1 [Compound 265] | < 500
15 | CC(C)[C@@H]1CN(c2nc(C3CC3)c3c(c2C#N)CC(C)(C)OC3)CCN1C(=O)C1CCOC1 (stereo partly drawn) [Compound 266] | 500 to 1000
16 | CSCCC(=O)N1CCN(c2nc(C(C)C)c3c(c2C#N)CC(C)(C)OC3)C[C@H]1C [Compound 267, (R)-8-isopropyl-3,3-dimethyl-6-(3-methyl-4-(3-(methylthio)propanoyl)piperazin-1-yl)-3,4-dihydro-1H-pyrano[3,4-c]pyridine-5-carbonitrile] | 500 to 1000
17 | COCCC(=O)N1CCN(c2nc(C3CC3)c3c(c2C#N)CC(C)(C)OC3)C[C@H]1C(C)C [Compound 270, (R)-8-cyclopropyl-6-(3-isopropyl-4-(3-methoxypropanoyl)piperazin-1-yl)-3,3-dimethyl-3,4-dihydro-1H-pyrano[3,4-c]pyridine-5-carbonitrile] | < 500
18 | CC(C)[C@@H]1CN(c2nc(C3CC3)c3c(c2C#N)CC(C)(C)OC3)CCN1C(=O)c1cccnc1 [Compound 271] | 1000 to 10000
19 | CC1(C)Cc2c(C#N)c(N3CCN(C(=O)c4ccco4)[C@H](c4ccccc4)C3)nc(C3CC3)c2CO1 [Compound 272] | 500 to 1000
20 | CC1(C)Cc2c(C#N)c(N3CCN(C(=O)c4ccoc4)[C@H](c4ccccc4)C3)nc(C3CC3)c2CO1 [Compound 274, (R)-8-cyclopropyl-6-(4-(furan-3-carbonyl)-3-phenylpiperazin-1-yl)-3,3-dimethyl-3,4-dihydro-1H-pyrano[3,4-c]pyridine-5-carbonitrile] | 1000 to 10000
21 | CC1(C)Cc2c(C#N)c(N3CCN(C(=O)c4ccoc4)[C@@H](c4ccccc4)C3)nc(C3CC3)c2CO1 [Compound 275] | 1000 to 10000
22 | CCOC(=O)C1CN(c2nc(C(C)C)c3c(c2C#N)CC(C)(C)OC3)CCN1C(=O)c1ccoc1 (stereo not drawn) [Compound 276] | 500 to 1000
23 | CCOC(=O)C1CN(c2nc(C3CCCCC3)c3c(c2C#N)CCOC3)CCN1C(=O)c1ccoc1C (stereo not drawn) [Compound 277, ethyl 4-(5-cyano-8-cyclohexyl-3,4-dihydro-1H-pyrano[3,4-c]pyridin-6-yl)-1-(2-methylfuran-3-carbonyl)piperazine-2-carboxylate] | 1000 to 10000
24 | CCOC(=O)C1CN(c2nc(C3CCCCC3)c3c(c2C#N)CCOC3)CCN1C(=O)CCOC (stereo not drawn) [Compound 278, ethyl 4-(5-cyano-8-cyclohexyl-3,4-dihydro-1H-pyrano[3,4-c]pyridin-6-yl)-1-(3-methoxypropanoyl) piperazine-2-carboxylate] | 1000 to 10000
25 | Cc1ccccc1NC(=O)N1CCN(c2nc(C3CCCCC3)c3c(c2C#N)CCOC3)C[C@H]1C [Compound 279, (R)-4-(5-cyano-8-cyclohexyl-3,4-dihydro-1H-pyrano[3,4-c]pyridin-6-yl)-2-methyl-N-o-tolylpiperazine-1-carboxamide] | 1000 to 10000
26 | C[C@@H]1CN(c2nc(C3CCCCC3)c3c(c2C#N)CCOC3)CCN1C(=O)Nc1ccc(F)cc1 [Compound 281, (R)-4-(5-cyano-8-cyclohexyl-3,4-dihydro-1H-pyrano[3,4-c]pyridin-6-yl)-N-(4-fluorophenyl)-2-methylpiperazine-1-carboxamide] | 1000 to 10000
27 | CC(C)[C@@H]1CN(c2nc(C3CC3)c3c(c2C#N)CC(C)(C)OC3)CCN1C(=O)NCCc1ccccc1 [Compound 286] | 1000 to 10000
